These results are taken from patent publication US11117900B2 (Vertex Pharmaceuticals Incorporated, priority 2012, dated 2021).

This assay deals with HCT116 colorectal cancer cells. Briefly: Cisplatin sensitization assay (96 h MTS cell viability).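 Note: compound concentration needed to lower the IC50 of Cisplatin alone by a set fold.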 In kind it is cell-based. The following applies: Cisplatin sensitization value. The protocol:
Compounds can be screened for their ability to sensitize HCT116 colorectal cancer cells to Cisplatin using a 96 h cell viability (MTS) assay. […] Compounds and Cisplatin are then both added simultaneously to the cell media in 2-fold serial dilutions from a top final concentration of 10 μM as a full matrix of concentrations in a final cell volume of 200 μl, and the cells are then incubated at 37° C. in 5% CO2. After 96 h, 40 μl of MTS reagent (Promega G358a) is added to each well and the cells are incubated for 1 h at 37° C. in 5% CO2.
Compounds with a Cisplatin sensitization value of <0.02 μM are marked with “+++.” Compounds with a Cisplatin sensitization value >0.02 μM but <0.2 μM are marked with “++.” Compounds with a Cisplatin sensitization value >0.2 μM but <5 μM are marked with “+.”
For `Nc1nn2cc(F)cnc2c1C(=O)Nc1cnccc1-c1ccc(C(=O)N2CCN3CCC2CC3)cc1F` [I-C-50, N-(4-(4-(1,4-diazabicyclo[3.2.2]nonane-4-carbonyl)-2-fluorophenyl)pyridin-3-yl)-2-amino-6-fluoropyrazolo[1,5-a]pyrimidine-3-carboxamide], the “Cisplatin Sensitization Assay” value was “+++ (Compounds with a Cisplatin sensitization value of <0.02 μM are marked with “+++.”)”.
On to `Nc1nn2cc(F)cnc2c1C(=O)Nc1cnccc1N1CCC(C(=O)N2CCC2)CC1` [I-G-77, 2-amino-N-(4-(4-(azetidine-1-carbonyl)piperidin-1-yl)pyridin-3-yl)-6-fluoropyrazolo[1,5-a]pyrimidine-3-carboxamide], for which the “Cisplatin Sensitization Assay” value is reported as “+++ (Compounds with a Cisplatin sensitization value of <0.02 μM are marked with “+++.”)”.
`CN(C)[C@H]1CCN(c2ccncc2NC(=O)c2c(N)nn3cc(Cl)cnc23)C[C@@H]1O` [I-N-35, 2-amino-6-chloro-N-(4-((3S,4S)-4-(dimethylamino)-3-hydroxypiperidin-1-yl)pyridin-3-yl)pyrazolo[1,5-a]pyrimidine-3-carboxamide]: the “Cisplatin Sensitization Assay” value is on record as “+ (Compounds with a Cisplatin sensitization value >0.2 μM but <5 μM are marked with “+.”)”.
Turning to `Nc1nn2cc(F)cnc2c1C(=O)Nc1cnccc1N1CCCCC1` [I-N-152, 2-amino-6-fluoro-N-(4-(piperidin-1-yl)pyridin-3-yl)pyrazolo[1,5-a]pyrimidine-3-carboxamide], the “Cisplatin Sensitization Assay” value is listed as “+++ (Compounds with a Cisplatin sensitization value of <0.02 μM are marked with “+++.”)”.
In the case of `Nc1nn2cc(F)cnc2c1C(=O)Nc1cncc(F)c1N1CCN(C(=O)C2CN3CCC2CC3)CC1` (stereo not drawn) [I-N-130, 2-amino-6-fluoro-N-(5-fluoro-4-(4-(quinuclidine-3-carbonyl)piperazin-1-yl)pyridin-3-yl)pyrazolo[1,5-a]pyrimidine-3-carboxamide] it was “++ (Compounds with a Cisplatin sensitization value >0.02 μM but <0.2 μM are marked with “++.”)”; in that of `Nc1nn2cc(Cl)cnc2c1C(=O)Nc1cnccc1OC1CCCNC1` (stereo not drawn) [I-O-75, 2-amino-6-chloro-N-(4-(piperidin-3-yloxy)pyridin-3-yl)pyrazolo[1,5-a]pyrimidine-3-carboxamide], “++ (Compounds with a Cisplatin sensitization value >0.02 μM but <0.2 μM are marked with “++.”)”; in that of `Nc1nn2cc(F)cnc2c1C(=O)Nc1cnccc1-c1ccc(C(=O)N2CCNCC2)cc1` [I-C-44, 2-amino-6-fluoro-N-(4-(4-(piperazine-1-carbonyl)phenyl)pyridin-3-yl)pyrazolo[1,5-a]pyrimidine-3-carboxamide], “+++ (Compounds with a Cisplatin sensitization value of <0.02 μM are marked with “+++.”)”.
As to `CN1CCC(Oc2c(Cl)cncc2NC(=O)c2c(N)nn3cc(Cl)cnc23)CC1` [I-O-46, 2-amino-6-chloro-N-(5-chloro-4-((1-methylpiperidin-4-yl)oxy)pyridin-3-yl)pyrazolo[1,5-a]pyrimidine-3-carboxamide], the “Cisplatin Sensitization Assay” value is “+ (Compounds with a Cisplatin sensitization value >0.2 μM but <5 μM are marked with “+.”)”.
With `Cc1ccncc1NC(=O)c1c(N)nn2cc(Cl)cnc12` [I-C-2, 2-amino-6-chloro-N-(4-methylpyridin-3-yl)pyrazolo[1,5-a]pyrimidine-3-carboxamide], the “Cisplatin Sensitization Assay” value is given as “++ (Compounds with a Cisplatin sensitization value >0.02 μM but <0.2 μM are marked with “++.”)”.
In the case of `N#CCc1cnc2c(C(=O)Nc3cnccc3OC3CNC3)c(N)nn2c1` [I-O-82, 2-amino-N-(4-(azetidin-3-yloxy)pyridin-3-yl)-6-(cyanomethyl)pyrazolo[1,5-a]pyrimidine-3-carboxamide], the “Cisplatin Sensitization Assay” value is listed as “++ (Compounds with a Cisplatin sensitization value >0.02 μM but <0.2 μM are marked with “++.”)”.
To `CN1CCN(C(=O)C2CCN(c3c(F)cncc3NC(=O)c3c(N)nn4cc(F)cnc34)CC2)C2CC21` (stereo not drawn) [I-G-65, 2-amino-6-fluoro-N-(5-fluoro-4-(4-(5-methyl-2,5-diazabicyclo[4.1.0]heptane-2-carbonyl)piperidin-1-yl)pyridin-3-yl)pyrazolo[1,5-a]pyrimidine-3-carboxamide] belongs “+++ (Compounds with a Cisplatin sensitization value of <0.02 μM are marked with “+++.”)”.
On to `CN1CCC(Oc2ccncc2NC(=O)c2c(N)nn3cc(Cl)cnc23)CC1` [I-O-64, 2-amino-6-chloro-N-(4-((1-methylpiperidin-4-yl)oxy)pyridin-3-yl)pyrazolo[1,5-a]pyrimidine-3-carboxamide], for which the “Cisplatin Sensitization Assay” value was “+++ (Compounds with a Cisplatin sensitization value of <0.02 μM are marked with “+++.”)”.
Regarding `CN1CCC[C@H]1C(=O)N1CCN(c2c(F)cncc2NC(=O)c2c(N)nn3cc(F)cnc23)CC1` [I-N-157, (S)-2-amino-6-fluoro-N-(5-fluoro-4-(4-(1-methylpyrrolidine-2-carbonyl)piperazin-1-yl)pyridin-3-yl)pyrazolo[1,5-a]pyrimidine-3-carboxamide], the “Cisplatin Sensitization Assay” value is on record as “++ (Compounds with a Cisplatin sensitization value >0.02 μM but <0.2 μM are marked with “++.”)”.
Regarding `Nc1nn2cc(F)cnc2c1C(=O)Nc1cnccc1O[C@H]1Cc2nccn2C1` [I-O-16, (S)-2-amino-N-(4-((6,7-dihydro-5H-pyrrolo[1,2-a]imidazol-6-yl)oxy)pyridin-3-yl)-6-fluoropyrazolo[1,5-a]pyrimidine-3-carboxamide], the “Cisplatin Sensitization Assay” value is “+++ (Compounds with a Cisplatin sensitization value of <0.02 μM are marked with “+++.”)”.
For the molecule `CCOC1CN(C(=O)C2CCN(c3ccncc3NC(=O)c3c(N)nn4cc(F)cnc34)CC2)C1` [I-G-91, 2-amino-N-(4-(4-(3-ethoxyazetidine-1-carbonyl)piperidin-1-yl)pyridin-3-yl)-6-fluoropyrazolo[1,5-a]pyrimidine-3-carboxamide], the “Cisplatin Sensitization Assay” value is listed as “+++ (Compounds with a Cisplatin sensitization value of <0.02 μM are marked with “+++.”)”.
As to `CO[C@@H]1CCN(C(=O)C2CCN(c3ccncc3NC(=O)c3c(N)nn4cc(F)cnc34)CC2)C1` [I-G-93, (R)-2-amino-6-fluoro-N-(4-(4-(3-methoxypyrrolidine-1-carbonyl)piperidin-1-yl)pyridin-3-yl)pyrazolo[1,5-a]pyrimidine-3-carboxamide], the “Cisplatin Sensitization Assay” value is “+++ (Compounds with a Cisplatin sensitization value of <0.02 μM are marked with “+++.”)”.
Take `Nc1nn2cc(Cl)cnc2c1C(=O)Nc1cnccc1N1CCC(N2CC(F)(F)C2)CC1` [I-N-108, 2-amino-6-chloro-N-(4-(4-(3,3-difluoroazetidin-1-yl)piperidin-1-yl)pyridin-3-yl)pyrazolo[1,5-a]pyrimidine-3-carboxamide]: the “Cisplatin Sensitization Assay” value is recorded as “+++ (Compounds with a Cisplatin sensitization value of <0.02 μM are marked with “+++.”)”.
Consider `CN(C)Cc1ccc(Oc2ccncc2NC(=O)c2c(N)nn3cc(F)cnc23)cn1` [I-O-3, 2-amino-N-(4-((6-((dimethylamino)methyl)pyridin-3-yl)oxy)pyridin-3-yl)-6-fluoropyrazolo[1,5-a]pyrimidine-3-carboxamide], for which the “Cisplatin Sensitization Assay” value is “++ (Compounds with a Cisplatin sensitization value >0.02 μM but <0.2 μM are marked with “++.”)”.
As for `Nc1nn2cc(F)cnc2c1C(=O)Nc1cncc(F)c1N1CCC(N2CCOCC2)CC1` [I-N-189, 2-amino-6-fluoro-N-(5-fluoro-4-(4-morpholinopiperidin-1-yl)pyridin-3-yl)pyrazolo[1,5-a]pyrimidine-3-carboxamide], the “Cisplatin Sensitization Assay” value was “+++ (Compounds with a Cisplatin sensitization value of <0.02 μM are marked with “+++.”)”.
For `Nc1nn2cc(F)cnc2c1C(=O)Nc1cnccc1-c1ccc(C(=O)N2CCC(N3CCCC3)CC2)nc1` [I-C-53, 2-amino-6-fluoro-N-(6-(4-(pyrrolidin-1-yl)piperidine-1-carbonyl)-[3,4′-bipyridin]-3′-yl)pyrazolo[1,5-a]pyrimidine-3-carboxamide], the “Cisplatin Sensitization Assay” value is recorded as “+++ (Compounds with a Cisplatin sensitization value of <0.02 μM are marked with “+++.”)”.
Consider `CC(C)N1CCCC1C(=O)N1CCN(c2c(F)cncc2NC(=O)c2c(N)nn3cc(F)cnc23)CC1` (stereo not drawn) [I-N-205, 2-amino-6-fluoro-N-(5-fluoro-4-(4-(1-isopropylpyrrolidine-2-carbonyl)piperazin-1-yl)pyridin-3-yl)pyrazolo[1,5-a]pyrimidine-3-carboxamide], for which the “Cisplatin Sensitization Assay” value was “++ (Compounds with a Cisplatin sensitization value >0.02 μM but <0.2 μM are marked with “++.”)”.
With `COCCOc1ccncc1NC(=O)c1c(N)nn2cc(Cl)cnc12` [I-O-55, 2-amino-6-chloro-N-(4-(2-methoxyethoxy)pyridin-3-yl)pyrazolo[1,5-a]pyrimidine-3-carboxamide], the “Cisplatin Sensitization Assay” value was “++ (Compounds with a Cisplatin sensitization value >0.02 μM but <0.2 μM are marked with “++.”)”.
With `Nc1nn2cc(F)cnc2c1C(=O)Nc1cncc(F)c1N1CCC(C(=O)N2CC(N3CCCCC3)C2)CC1` [I-G-57, 2-amino-6-fluoro-N-(5-fluoro-4-(4-(3-(piperidin-1-yl)azetidine-1-carbonyl)piperidin-1-yl)pyridin-3-yl)pyrazolo[1,5-a]pyrimidine-3-carboxamide], the “Cisplatin Sensitization Assay” value is on record as “+++ (Compounds with a Cisplatin sensitization value of <0.02 μM are marked with “+++.”)”.
In the case of `Nc1nn2cc(Cl)cnc2c1C(=O)Nc1cnccc1N1CC[S+]([O-])CC1` [I-N-68, 2-amino-6-chloro-N-(4-(1-oxidothiomorpholino)pyridin-3-yl)pyrazolo[1,5-a]pyrimidine-3-carboxamide] it was “+++ (Compounds with a Cisplatin sensitization value of <0.02 μM are marked with “+++.”)”.
